Legend:
APP-degrading protease = assay: Assay of APP-degrading protease (Zn^2+-enhanced degradation of plasma 130 kDa APP); format: biochemical, human; settings: heparin-Sepharose eluates, 37° C.
[1] = tested on: human brain full-length APP; assay: ^125I-APP binding to heparin-Sepharose
Experimental: 100 kDa human brian full-length APP was iodinated by the Chloramine-T method. Iodinated APP (^125I-APP) was then separated from labelling reagents by Sephacryl G25 chromatography.
The column was then washed with 6 ml buffer 1 and the APP eluted with aliquots of high-NaCl buffers.

[2] = biological target: T1, partially purified human serum APP (Homo sapiens, UniProt P05067); assay: partially purified serum APP binding to heparin-Sepharose
T1 construct: from tissue; host or cells: human serum
Experimental: 40-60 ml of whole blood was allowed to clot for 3 hours in plain tubes at 20° C. The clotted blood was then incubated for 16 hours at 4° C., whereupon it was centrifuged at 1500 g for 15 minutes and the supernatant removed. The serum was further centrifuged at 1500 g for 15 minutes and the cell-free supernatant removed.
APP binding to heparin-Sepharose was also studied using partially purified APP preparations derived from human brain membranes (according to the method of Moir et al, 1992) or from human serum. Washed brain membrane extract or human serum was adjusted to a NaCl concentration of 350 mM and applied to a Q-Sepharose column (5 cm×5 cm), washed with 350 mM NaCl, 50 mM Tris-Hcl, pH 7.4 (250 ml [×2 for brain membrane extract]) and eluted with 1 M NaCl 50 mM Tris-HCl, pH 7.4 (200 ml at 5 ml/min). This procedure causes an 80-fold enrichment of APP in the peak protein fractions, which are then pooled (Moir et al, 1992). The eluate (20 ml) was desalted into 25 mM Tris, pH 7.4 (30 ml) using a G25 Sephadex column (2.6 cm×40 cm). 15 ml of the product was adjusted to 50 μM Zn^2+ with 2 mM ZnCl2, 50 mM Tris-Hcl, pH 7.4 and the other 15 ml was adjusted to the same volume with 50 mM Tris-HCl, pH 7.4. 10 ml of the deslated Q-Sepharose eluate, containing 6.7 mg protein, was applied to heparin-Sepharose (1.6 cm×5 cm) at 0.35 ml/min, washed with 100 ml of loading buffer, and eluted by a 0 to 1500 mM NaCl gradient (±50 μM Zn^2+) in 52.5 ml at a flow rate of 0.35 ml/min. […] The immunoreactive staining of the 130 kDa APP species seen on the blots was quantified by computer-assisted image capture reflectance densitometry (Bush et al., 1992). The 130 kDa reflectance signals on the blots were expressed as the ratio of the signal generated in one sample lane related to the 130 kDa APP reflectance reading of a sample of starting material present on every individual filter as an internal standard.

[3] = biological target: T2, APP purified from rat brain (Rattus norvegicus, UniProt P08592); assay: heparin binding to APP in a Biosensor system
T2 construct: from tissue; host or cells: rat brain
Experimental: The effect of Zn^2+ in modulating heparin binding to APP was also studied in a Biosensor system. […] This effect was most pronounced and most specific for Zn^2+, as opposed to the absence of divalent cations or the presence of Ca^2+, Mg^2+ or Co^2+, and was most evident when the heparin:APP ratio was low. […] Zn^2+ at 50 nM promoted a =170% increase in heparin binding, the effect saturating at 70 μM.

[4] = tested on: human brain membrane-derived APP; assay: trypsin digestion of human brain membrane-derived APP, Western blot with 22C11; format: biochemical
Source text: The proteolytic activity of trypsin (Boehringer, Mannheim) was studied to determine whether it was modulated by a range of doses of heparin (Sigma) and ZnCl2. […] Western blots for APP using the APP binding monoclonal antibody 22C11 were used to monitor the progression of the proteolytic reaction and to detect breakdown products.

trypsin = assay: tryptic activity on fluorogenic substrate Z-F-R-AMC; format: biochemical; settings: range of doses
APP = assay: Effect of zinc loading upon rat brain APP; format: in vivo; settings: 120 mg/kg injected daily for four days
Experimental: 16 week old Sprauge-Dawley male rats were injected daily for four days with 120 mg/kg ZnCl2 solution. The animals were then anaesthetized, bled by intracardiac puncture and their brains removed, homogenized and separated into membrane and soluble fractions following ultracentrifugation.

PC12 cells = assay: Effect of extracellular zinc on cultured PC12 cells (APP by Western blot); format: cell-based; settings: 48 hr
Experimental: 10^6 PC12 cells were plated for 24 hr in the presence of Dulbecco's modified Eagle's medium (DMEM, N2) supplemented with 8% fetal calf serum (FCS). The medium was then removed and replaced with DMEM±2 to 50 μM ZnCl2 or another salt, and no FCS. Cells and media were harvested 48 hr later and aliquots of media, cell cytosol and membrane (following lysis and ultracentrifugation) were assayed for APP by Western blotting with mAb 22C11.

T2 sequence (P08592 18-770): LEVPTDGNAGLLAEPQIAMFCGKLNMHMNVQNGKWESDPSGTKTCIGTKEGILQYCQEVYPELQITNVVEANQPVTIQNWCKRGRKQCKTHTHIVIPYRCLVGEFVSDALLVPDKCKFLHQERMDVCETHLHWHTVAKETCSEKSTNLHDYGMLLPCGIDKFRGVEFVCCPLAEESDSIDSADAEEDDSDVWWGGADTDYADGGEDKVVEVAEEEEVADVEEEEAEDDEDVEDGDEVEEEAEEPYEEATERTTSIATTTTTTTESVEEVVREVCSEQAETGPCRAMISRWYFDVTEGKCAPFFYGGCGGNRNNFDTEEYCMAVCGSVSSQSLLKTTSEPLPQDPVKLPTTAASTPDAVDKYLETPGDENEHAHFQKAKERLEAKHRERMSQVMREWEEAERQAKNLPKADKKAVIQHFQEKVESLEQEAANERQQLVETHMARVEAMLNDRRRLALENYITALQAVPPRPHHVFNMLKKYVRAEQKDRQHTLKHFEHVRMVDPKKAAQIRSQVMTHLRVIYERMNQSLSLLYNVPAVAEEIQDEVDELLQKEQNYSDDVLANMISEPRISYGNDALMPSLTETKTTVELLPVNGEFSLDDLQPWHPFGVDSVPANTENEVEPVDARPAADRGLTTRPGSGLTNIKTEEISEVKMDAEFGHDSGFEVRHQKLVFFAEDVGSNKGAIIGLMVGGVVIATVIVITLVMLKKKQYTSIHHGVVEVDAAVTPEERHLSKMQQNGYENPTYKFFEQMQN
T1 sequence (P05067 18-687 limits assumed): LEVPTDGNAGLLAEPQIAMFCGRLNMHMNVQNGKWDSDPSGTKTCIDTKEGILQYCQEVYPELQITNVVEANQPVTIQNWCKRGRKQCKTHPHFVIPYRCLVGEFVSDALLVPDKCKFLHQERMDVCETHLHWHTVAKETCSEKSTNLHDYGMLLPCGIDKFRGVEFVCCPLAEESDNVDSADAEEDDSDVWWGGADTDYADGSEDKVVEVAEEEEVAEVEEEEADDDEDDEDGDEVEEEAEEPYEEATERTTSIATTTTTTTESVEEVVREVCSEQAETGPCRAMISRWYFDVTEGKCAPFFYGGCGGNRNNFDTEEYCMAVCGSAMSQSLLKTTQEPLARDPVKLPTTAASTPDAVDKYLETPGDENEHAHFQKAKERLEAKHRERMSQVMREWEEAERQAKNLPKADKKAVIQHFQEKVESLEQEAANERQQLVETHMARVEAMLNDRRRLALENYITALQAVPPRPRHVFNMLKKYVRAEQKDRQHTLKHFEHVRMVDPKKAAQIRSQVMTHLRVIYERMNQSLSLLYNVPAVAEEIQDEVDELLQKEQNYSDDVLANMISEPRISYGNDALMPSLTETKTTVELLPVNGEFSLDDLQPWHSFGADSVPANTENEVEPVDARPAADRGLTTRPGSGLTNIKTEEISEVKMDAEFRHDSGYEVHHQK

Compound: [Cl-].[Cl-].[Zn+2] [Zn^2+, ZnCl2]
- effect on proteolysis of plasma APP (APP-degrading protease): Proteolysis was accelerated
- concentration at which increase in ^125I-APP binding to heparin reached a plateau [1]: 75 µM
- increase in ^125I-APP recovered from the 50-2000 mM NaCl elution fraction ([1]; 50 μM Zn^2+): approximately 3 fold
- increase in amount of brain APP binding to heparin ([1]; 50 μM Zn^2+): 50%
- increase in ^125I-APP recovered from the 50-2000 mM NaCl elution fraction ([1]; 100 μM Zn^2+): 4.5 fold
- effect on proportion of higher-affinity binding of serum-derived APP [2]: did not increase the proportion of higher-affinity binding
- increase in APP recovered from the NaCl elution ([2]; 50 μm Zn^2+): 10%
- increase in amount of protein recovered ([2]; 50 μm Zn^2+, protein assay): 12%
- concentration at which effect on heparin binding saturates [3]: 70 µM
- effect on heparin binding to APP ([3]; 100 μM): strongly promote heparin binding to APP
- increase in heparin binding to rat brain APP ([3]; Zn^2+ at 50 nM): 170%
- Zn^2+ concentration that completely abolished the protective effect of heparin ([4]; with heparin (1 μM)): above 1 μM
- effect on rate of APP proteolysis by trypsin ([4]; without heparin, Zn^2+ up to 100 μM, EDTA 1 mM): had no effect
- effect on tryptic activity (trypsin): left tryptic activity unaltered
- new APP band in plasma (APP): development of a novel 80 kDa band in plasma
- increase in the amounts of all forms of APP (APP; plasma and brain preparations vs litter-mates): 80%
- increase in APP released into the media (PC12 cells; 2 μM): 50%
- increase in APP released into the media (peak) (PC12 cells; 50 μM): 200%
- cytosolic APP (PC12 cells): Smaller increases in cytosolic APP
- membrane associated APP levels (PC12 cells): no change in membrane associated APP levels
